Reference: the supplement of paper PMC4862054

Columns and labels:
Conditions in all cases: 72 h
HCC1143 [1] = system: HCC1143
How it was run: (§1)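 For viability and cell death testing, 384-well plates carried compound at 5 concentrations in 10-fold steps over a compound-specific 10,000-fold range, and breast cancer cell lines were seeded in 20 µl suspension. After 72 h incubation, cell death was read by CellTox Green fluorescence (485/520 nm) before viability was read by CellTiter-Glo luminescence. EC50 was fitted from the dose-response curves and censored at the top concentration. Normalisation on each plate was to 0.1 % DMSO and a positive kill control.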

CAL-85-1 [2] = system: CAL-85-1
How it was run: as §1

MFM-223 [3] = system: MFM-223
How it was run: as §1

HCC1937 = system: HCC1937
How it was run: as §1

CAL-120 [4] = system: CAL-120
How it was run: as §1

HDQ-P1 [5] = system: HDQ-P1
How it was run: as §1

MCF-10A [6] = system: MCF-10A
How it was run: as §1

MDA-MB-231 [7] = system: MDA-MB-231
How it was run: as §1

MDA-MB-436 [8] = system: MDA-MB-436
How it was run: as §1

BT-549 [9] = system: BT-549
How it was run: as §1

CAL-148 [10] = system: CAL-148
How it was run: as §1

Hs578T [11] = system: Hs578T
How it was run: as §1

MDA-MB-453 = system: MDA-MB-453
How it was run: as §1

HCC1599 [12] = system: HCC1599
How it was run: as §1

SK-BR-3 [13] = system: SK-BR-3
How it was run: as §1

DU-4475 [14] = system: DU-4475
How it was run: as §1

CAL-85-1 [15] = system: CAL-85-1; remark: listed apart in the source
Procedure: (§2)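 Drug sensitivity and resistance testing (DSRT) of breast cancer cell lines in 384-well plates, 5 concentrations in 10-fold dilutions over a compound-specific 10,000-fold range. After 72 h, cytotoxicity was read by CellTox Green fluorescence and viability by CellTiter-Glo luminescence (multiplexed), normalised to DMSO and benzethonium chloride controls. EC50 is the inflection point of the fitted dose-response curve (bottom asymptote free, so it can be relative for partial curves) and is censored at the highest tested concentration. Rows with DSS 0 (no meaningful response) were excluded.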

MFM-223 [16] = system: MFM-223; remark: listed apart in the source
Procedure: as §2

MDA-MB-468 [17] = system: MDA-MB-468
Procedure: as §2

CAL-120 [18] = system: CAL-120; remark: listed apart in the source
Procedure: as §2

CAL-51 [19] = system: CAL-51
Procedure: as §2

MCF-10A [20] = system: MCF-10A; remark: listed apart in the source
Procedure: as §2

MDA-MB-231 [21] = system: MDA-MB-231; remark: listed apart in the source
Procedure: as §2

MDA-MB-436 [22] = system: MDA-MB-436; remark: listed apart in the source
Procedure: as §2

BT-549 [23] = system: BT-549; remark: listed apart in the source
Procedure: as §2

CAL-148 [24] = system: CAL-148; remark: listed apart in the source
Procedure: as §2

Hs578T [25] = system: Hs578T; remark: listed apart in the source
Procedure: as §2

HCC1599 [26] = system: HCC1599; remark: listed apart in the source
Procedure: as §2

BT-474 [27] = system: BT-474
Procedure: as §2

CAL-85-1 [28] = system: CAL-85-1; remark: listed apart in the source
How it was run: (§3)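 Breast cancer cell lines in 20 µl suspension were seeded onto 384-well plates that already held compound dissolved in 5 µl medium and were incubated for 72 h. Viability was measured by adding 2.5 µl CellTiter-Blue for 2 h at 37 °C and reading fluorescence at 560/590 nm. Each plate was normalised to vehicle and a positive kill control and checked by Z'-factor. EC50 was taken from a fitted percent-inhibition dose-response curve, censored at the highest concentration, and rows with a drug sensitivity score of zero were removed.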

CAL-51 [29] = system: CAL-51; remark: listed apart in the source
How it was run: as §3

HDQ-P1 [30] = system: HDQ-P1; remark: listed apart in the source
How it was run: as §3

DU-4475 [31] = system: DU-4475; remark: listed apart in the source
How it was run: as §3

HCC1143 [32] = system: HCC1143; remark: listed apart in the source
How it was run: as §3

MFM-223 [33] = system: MFM-223; remark: listed apart in the source
How it was run: as §3

MDA-MB-468 [34] = system: MDA-MB-468; remark: listed apart in the source
How it was run: as §3

MDA-MB-436 [35] = system: MDA-MB-436; remark: listed apart in the source
How it was run: as §3

BT-549 [36] = system: BT-549; remark: listed apart in the source
How it was run: as §3

Hs578T [37] = system: Hs578T; remark: listed apart in the source
How it was run: as §3

HCC1599 [38] = system: HCC1599; remark: listed apart in the source
How it was run: as §3

BT-474 [39] = system: BT-474; remark: listed apart in the source
How it was run: as §3

SK-BR-3 [40] = system: SK-BR-3; remark: listed apart in the source
How it was run: as §3

In the case of CCC1=C[C@@H]2CN(C1)Cc1c([nH]c3ccccc13)[C@@](C(=O)OC)(c1cc3c(cc1OC)N(C)[C@H]1[C@@](O)(C(=O)OC)[C@H](OC(C)=O)[C@]4(CC)C=CCN5CC[C@]31[C@@H]54)C2 [Vinorelbine], the “EC50, CellTiter-Glo” value (HCC1143 [1]) is reported as 23.5 nM, the “EC50, CellTiter-Glo” value (CAL-85-1 [2]) is reported as 24.5 nM and the “EC50, CellTiter-Glo” value (MFM-223 [3]) is reported as 76.8 nM. For the same compound, the “EC50, CellTiter-Glo” value (HCC1937) was 29.5 nM, the “EC50, CellTiter-Glo” value (CAL-120 [4]) was 24.1 nM and the “EC50, CellTiter-Glo” value (HDQ-P1 [5]) was 40.6 nM. For the same compound, the “EC50, CellTiter-Glo” value (MCF-10A [6]) was 27.3 nM, the “EC50, CellTiter-Glo” value (MDA-MB-231 [7]) was 119 nM and the “EC50, CellTiter-Glo” value (MDA-MB-436 [8]) was 42.9 nM. For the same compound, the “EC50, CellTiter-Glo” value (BT-549 [9]) was 26.3 nM, the “EC50, CellTiter-Glo” value (CAL-148 [10]) was 35.7 nM and the “EC50, CellTiter-Glo” value (Hs578T [11]) was 69.7 nM. For the same compound, the “EC50, CellTiter-Glo” value (MDA-MB-453) was 12.6 nM, the “EC50, CellTiter-Glo” value (HCC1599 [12]) was 206 nM and the “EC50, CellTiter-Glo” value (SK-BR-3 [13]) was 3.1 nM. For the same compound, the “EC50, CellTiter-Glo” value (DU-4475 [14]) was 1510 nM, the “EC50, CellTox Green” value (CAL-85-1 [15]) was 23.2 nM and the “EC50, CellTox Green” value (MFM-223 [16]) was 5.52 nM. For the same compound, the “EC50, CellTox Green” value (MDA-MB-468 [17]) was 3.51 µM, the “EC50, CellTox Green” value (CAL-120 [18]) was 1500 nM and the “EC50, CellTox Green” value (CAL-51 [19]) was 45.2 nM. For the same compound, the “EC50, CellTox Green” value (MCF-10A [20]) was 13.7 nM, the “EC50, CellTox Green” value (MDA-MB-231 [21]) was 263 nM and the “EC50, CellTox Green” value (MDA-MB-436 [22]) was 273 nM. The “EC50, CellTox Green” value (BT-549 [23]) was 492 nM, the “EC50, CellTox Green” value (CAL-148 [24]) was 42.5 nM and the “EC50, CellTox Green” value (Hs578T [25]) was 95.4 nM. The “EC50, CellTox Green” value (HCC1599 [26]) was 356 nM, the “EC50, CellTox Green” value (BT-474 [27]) was 85.9 nM and the “EC50, CellTiter-Blue viability” value (CAL-85-1 [28]) was 23.1 nM. For the same compound, the “EC50, CellTiter-Blue viability” value (CAL-51 [29]) was 116 nM, the “EC50, CellTiter-Blue viability” value (HDQ-P1 [30]) was 74 nM and the “EC50, CellTiter-Blue viability” value (DU-4475 [31]) was 304 nM. For the same compound, the “EC50, CellTiter-Blue viability” value (HCC1143 [32]) was 41.8 nM, the “EC50, CellTiter-Blue viability” value (MFM-223 [33]) was 44.4 nM and the “EC50, CellTiter-Blue viability” value (MDA-MB-468 [34]) was 33.5 nM. The “EC50, CellTiter-Blue viability” value (MDA-MB-436 [35]) was 72.8 nM, the “EC50, CellTiter-Blue viability” value (BT-549 [36]) was 37.8 nM and the “EC50, CellTiter-Blue viability” value (Hs578T [37]) was 39.8 nM. The “EC50, CellTiter-Blue viability” value (HCC1599 [38]) was 176 nM, the “EC50, CellTiter-Blue viability” value (BT-474 [39]) was 33.5 nM and the “EC50, CellTiter-Blue viability” value (SK-BR-3 [40]) was 30.9 nM.
